Source: PMC10812521, “Boesenbergia rotunda and Its Pinostrobin for Atopic Dermatitis: Dual 5-Lipoxygenase and Cyclooxygenase-2 Inhibitor and Its Mechanistic Study through Steady-State Kinetics and Molecular Modeling” (Antioxidants, 2024)
Values after ≈ are worked out from the molar mass of the structure shown. “Also recorded” adds a separate entry of the source. Counter-ions that a name gives are not always drawn. Like-named read-outs stand apart in the source and are kept apart here. One block for each molecule: values may come before it.

Tests used:
Staphylococcus aureus = test: Broth dilution assay (MIC); format: cell-based; settings: pure compounds, inactive at >200 µg/mL
Description: The MIC values were determined using a broth dilution assay. Tetracycline used as an antibiotic was dissolved in 50% ethanol while EOs, extracts, and pinostrobin dissolved in DMSO (0.2% v/v) were suspended in an LB medium to obtain the final concentrations of EOs/extract, pinostrobin, and tetracycline in the range of 0.1562–200 µg/mL. Then, 20 µL of the bacterial culture with an OD600 value of ~0.5 was taken into each tube, which was continuously inoculated. Afterward, the treated culture was incubated at 37 °C for 24 h in a shaking condition (180 rpm). The absorbance was further measured at 600 nm. An LB medium and 0.2% DMSO were used as positive controls, while the cell culture without treatment in an LB medium was used as a negative control. The experiments were performed in triplicate.

[1] = Nitric oxide (NO) radical scavenging activity (Griess reaction); settings: pure compounds
Description: The technique was adapted and modified from the study of Thadhani et al.. The Griess reaction was used to determine the NO radical scavenging activity. The NO radicals were generated from 10 mM sodium nitroprusside (SNP) in phosphate-buffered saline (PBS), pH 7.3. A range of sample concentrations (10 µL, 0.625–5 mg/mL) were reacted with 10 mM SNP in PBS at pH 7.3 (90 µL) at room temperature for 90 min in a 96-well plate under visible polychromatic light. Afterward, 1% sulfanilamide in 5% H3PO4 (50 µL) was added to the preincubated extract, followed by subsequent incubation in a dark condition with ambient temperature for 5 min. Following that, 50 µL of 0.1% w/v N-(1-naphtyl)-ethylenediamine (NED) in distilled water was added to each well before incubating at room temperature for 30 min in a dark condition. The diazotization of sulfanilamide with a nitrite ion occurred, followed by a coupling reaction with NED solution to generate a magenta-colored chromophore. The absorbance was measured using a microplate reader at 540 nm. Quercetin was used as a positive control. […] A solvent was used as a control. The percentage inhibition was calculated using Equation (5). (5) % Inhibition=Absorbance control−Absorbance sample/Absorbance control×100

[2] = DPPH radical scavenging activity; settings: pure compounds
Description: Each extract/EOs sample (20 µL) at various concentrations ([…]–5 mg/mL) was placed to a 96-well plate, followed by the addition of 120 µM DPPH solution in methanol (180 µL). The plate was subsequently incubated for 30 min in the dark at 37 °C. After that, the absorbance was measured by a microplate reader at 517 nm. Quercetin and solvent were used as a positive control and a control, respectively. The radical scavenging percentage inhibition against DPPH was calculated using Equation (4). (4) % Inhibition=Absorbance control−Absorbance sample/Absorbance control×100

[3] = molecular target: T1, Human recombinant 5-lipoxygenase (Homo sapiens, UniProt P09917); test: Steady-state inhibition kinetic study of 5-lipoxygenase; format: biochemical; settings: for type of inhibition against 5-LOX: Michaelis-Menten and Lineweaver-Burk plots
T1 construct: purchased Cayman Chemical
T1 sequence (P09917 1-674): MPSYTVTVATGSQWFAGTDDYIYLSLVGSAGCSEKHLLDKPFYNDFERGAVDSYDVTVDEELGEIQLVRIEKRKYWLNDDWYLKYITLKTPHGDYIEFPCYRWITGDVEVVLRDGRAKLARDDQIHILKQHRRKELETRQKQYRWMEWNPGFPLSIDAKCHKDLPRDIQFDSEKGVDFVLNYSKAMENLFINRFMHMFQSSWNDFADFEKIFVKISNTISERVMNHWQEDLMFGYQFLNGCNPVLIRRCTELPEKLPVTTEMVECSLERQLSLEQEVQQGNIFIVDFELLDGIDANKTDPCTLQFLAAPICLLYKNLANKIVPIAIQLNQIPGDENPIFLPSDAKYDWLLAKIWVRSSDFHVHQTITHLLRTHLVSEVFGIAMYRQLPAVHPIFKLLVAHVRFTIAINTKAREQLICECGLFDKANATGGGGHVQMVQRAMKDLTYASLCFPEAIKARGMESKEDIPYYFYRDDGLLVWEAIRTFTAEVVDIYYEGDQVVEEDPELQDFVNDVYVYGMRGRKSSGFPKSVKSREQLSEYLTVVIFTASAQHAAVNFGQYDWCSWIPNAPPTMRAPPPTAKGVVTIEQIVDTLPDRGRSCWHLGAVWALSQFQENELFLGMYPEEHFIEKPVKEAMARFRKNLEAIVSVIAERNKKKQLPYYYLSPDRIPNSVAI
Description: The same experimental conditions as described previously for determining enzyme inhibition were applied. The reaction was performed at 25 °C and measured kinetically for 30 min (BioTek Synergy H1 microplate reader, Winooski, VT, USA). […] Furthermore, the enzymes’ velocity was plotted versus the substrate concentration, which was fitted to the Henri–Michaelis–Menten equation. In addition, the data were transformed to fit a double reciprocal plot using the Lineweaver–Burk method. […] All measurements were performed in two rounds of triplicate wells.

[4] = tested on: RAW264.7 murine macrophage cells; parameters: method as in PMID 26048035; settings: 25 µg/mL; cited from earlier work
soybean 15-lipoxygenase = tested on: soybean 15-lipoxygenase; parameters: method as in PMID 26048035; settings: tested range of concentrations; cited from earlier work
[5] = tested on: LPS-induced RAW264.7 murine macrophage cells; parameters: method as in PMID 26048035; settings: 25 µg/mL; cited from earlier work
Human recombinant 5-LOX = molecular target: T2, Human recombinant 5-LOX (Homo sapiens, UniProt P09917); test: 5-Lipoxygenase inhibitory assay; format: biochemical
T2 construct: purchased Cayman Chemical
T2 sequence (P09917 1-674): T1 sequence (P09917 1-674)
Description: We performed this method according to a previous study with some modifications. Human recombinant 5-LOX (Cayman Chemical, E.C. 1.13.11.34, Ann Arbor, MI, USA) was used in this study. Various concentrations of 20 µL of the tested samples (dissolved in polysorbate-20 and DMSO) were plated in a 96-well UV transparent plate followed by the addition of 100 µL of 0.1 M potassium phosphate buffer, pH 6.3. The mixture was maintained at 25 °C before the addition of enzyme. We added 20 µL of 100 U 5-LOX enzyme (in 0.1 M potassium phosphate buffer, pH 6.3) to the sample solution followed by a 4 min incubation at 25 °C. Afterward, the reaction was initiated by adding 10 µL of 1 mM arachidonic acid as a substrate. The incubation was performed at 25 °C for 30 min, and the absorbance was measured at 234 nm using a microplate reader. The nonenzymatic control was used as a background. […] The experiments were performed in two rounds to generate five replicate wells in total. The percentage of inhibition was calculated by Equation (8), and the IC50 values were determined. (8) % Inhibition=Absorbance control−Absorbance sample/Absorbance control×100

Human recombinant COX-2 = molecular target: T3, Human recombinant COX-2 (Homo sapiens, UniProt P35354); test: Cyclooxygenase-2 inhibitory assay; format: biochemical
T3 construct: purchased Sigma Aldrich C0858; host or cells: insect cells
T3 sequence (P35354 18-604): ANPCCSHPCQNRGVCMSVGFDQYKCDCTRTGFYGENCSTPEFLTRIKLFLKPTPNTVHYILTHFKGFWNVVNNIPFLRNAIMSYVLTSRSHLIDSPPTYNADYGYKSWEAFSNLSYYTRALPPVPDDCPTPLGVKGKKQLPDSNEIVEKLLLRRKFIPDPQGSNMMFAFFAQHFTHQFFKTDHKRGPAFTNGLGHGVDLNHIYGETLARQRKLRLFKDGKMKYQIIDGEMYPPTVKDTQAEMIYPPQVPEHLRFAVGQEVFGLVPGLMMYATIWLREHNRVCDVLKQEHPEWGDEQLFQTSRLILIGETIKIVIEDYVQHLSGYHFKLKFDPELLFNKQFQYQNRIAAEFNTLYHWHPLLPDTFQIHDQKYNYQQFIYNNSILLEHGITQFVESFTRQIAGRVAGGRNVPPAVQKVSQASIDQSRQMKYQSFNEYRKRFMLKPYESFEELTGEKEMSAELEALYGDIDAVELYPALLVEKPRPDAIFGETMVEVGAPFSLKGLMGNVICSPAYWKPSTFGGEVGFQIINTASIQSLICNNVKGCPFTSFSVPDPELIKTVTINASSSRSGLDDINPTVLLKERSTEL
Description: This method was adapted and modified from Chew et al. (2018). Human recombinant COX-2 expressed in insect cells (Sigma Aldrich, C0858) was used in this experiment. Initially, a solution of 100 mM Tris HCl buffer, pH 8, was plated out in each well of a 96-well plate. Various concentrations of 40 µL samples (dissolved in polysorbate-20 and DMSO) were further added to the plate, followed by the addition of 40 µL of 40 U COX-2 enzyme (in ice-cool 100 mM Tris HCl buffer, pH 8). The mixture was incubated at 25 °C for 15 min under dark condition. Following the incubation, 10 µL of 20 mM N,N,N′,N′-tetramethyl-p-phenylenediamine (TMPD) and 4 µL of 10 µM of arachidonic acid were added to the mixture. Incubation of the mixture was further performed at a subdued light condition for 15 min. Prostaglandin G2 (PGG2) as an intermediate peroxide product was formed by the reaction and further oxidized the TMPD to a purple-colored TMPD complex. The absorbance was measured at 611 nm. The experiments were performed in duplicate wells. […] The percentage of inhibition was calculated by Equation (7), and the IC50 values were determined. (7) % Inhibition=Absorbance control−Absorbance sample/Absorbance control×100

COX-2 = settings: cited from earlier work
5-LOX = tested on: 5-LOX; parameters: method as in PMID 17376394; settings: cited from earlier work
COX-2 and COX-1 = tested on: COX-2 and COX-1; parameters: method as in PMID 26626242; settings: cited from earlier work
[6] = topical application, mouse model, 1000 mg/kg; cited from earlier work
[7] = tested on: keratinocyte (HaCaT) cells; parameters: method as in earlier work; settings: cited from earlier work
[8] = Ferric reducing antioxidant power (FRAP); settings: pure compound
Description: Each extract/EOs sample (10 µL) was added to each well of a 96-well plate at various concentrations (1–5 mg/mL), followed by a freshly prepared FRAP reagent (190 µL). The mixture was then incubated at room temperature for 4 min. Vivid blue resulted from the […]. The absorbance was further measured at 595 nm. The FRAP value (Equation (6)) was determined by calculating the concentration of ferric ions in the samples relative to the calibration curve of FeSO4 (FRAP value in µM FeSO4/mg dry weight of extract). (6) FRAP value=C ×v (mL)/d × c (mg/mL) where C is the calibrated sample concentration, v is the volume sample, d is the dilution factor, and c is the concentration of the tested sample.

[9] = Staphylococcus aureus, read-out: MIC
[10] = read-out: COX-2 IC50 (µg/mL) (converted)

Molecule: CN(C)[C@@H]1C(O)=C(C(N)=O)C(=O)[C@@]2(O)C(O)=C3C(=O)c4c(O)cccc4[C@@](C)(O)[C@H]3C[C@@H]12 [Tetracycline, tetracycline hydrochloride]
MIC (Staphylococcus aureus; [9]): 3.12 µg/mL

IC50 [1]: 310 µM
NO Radical; IC50 [1]: 93.58 ± 7.93 µg/mL
DPPH Radical; IC50 [2]: 19.08 ± 1.34 µg/mL
IC50 [2]: 63.1 µM
Molecule: O=c1c(O)c(-c2ccc(O)c(O)c2)oc2cc(O)cc(O)c12 [Quercetin, Quercetin hydrate]

Molecule: CC(Cc1ccc(O)c(O)c1)C(C)Cc1ccc(O)c(O)c1 (stereo not drawn) [NDGA, nordihydroguaiaretic acid]
type of inhibition against 5-LOX [3]: mixed-type inhibition; also recorded: mixed-type inhibitor

Molecule: (–)-pinostrobin
cytotoxic effect [4]: without a cytotoxic effect
activity towards soybean 15-lipoxygenase (soybean 15-lipoxygenase): inactive
inhibition of NO production [5]: 90.84%

Molecule: CCC(=O)OCC(=O)[C@@]1(OC(=O)CC)[C@@H](C)C[C@H]2[C@@H]3CCC4=CC(=O)C=C[C@]4(C)[C@@]3(F)[C@@H](O)C[C@@]21C [BD, betamethasone dipropionate]
IC50 (Human recombinant 5-LOX; 5-LOX IC50 (µM)): 2.08 µM
IC50 (Human recombinant 5-LOX; 5-LOX IC50 (µg/mL)): 2.08 µM
IC50 (Human recombinant COX-2; read-out: COX-2 IC50): 240 µM
IC50 (Human recombinant COX-2; [10]): 240 µM

Molecule: COc1ccc2c(c1)c(CC(=O)O)c(C)n2C(=O)c1ccc(Cl)cc1 [indomethacin]
COX-2 IC50 (COX-2): 0.26 ± 0.03 µg/mL

Molecule: COc1cc(O)c2c(c1)OC(c1ccccc1)CC2=O (racemic) [racemic pinostrobin, pinostrobin]
COX activity compared with the positive control (COX-2 and COX-1): comparable to etodolac
selectivity COX-2 versus COX-1 (COX-2 and COX-1): more selective for COX-2 than COX-1

Molecule: COc1cc(O)c2c(c1)O[C@H](c1ccccc1)CC2=O [Pinostrobin, pinostrobin]
MIC (Staphylococcus aureus; [9]): > 200 µg/mL
MIC (Staphylococcus aureus): >200 µg/mL
dermal toxicity [6]: no dermal toxicity was observed
IC50 (Human recombinant 5-LOX; read-out: 5-LOX IC50): 0.499 µM
IC50 (Human recombinant 5-LOX; read-out: 5-LOX IC50 (µg/mL) (converted)): 0.499 µM
fold superior 5-LOX inhibitory activity than BD (Human recombinant 5-LOX; relative to BD): 4 fold
fold superior 5-LOX inhibitory activity to NDGA (Human recombinant 5-LOX; relative to NDGA): 10 fold
IC50 (Human recombinant COX-2; read-out: COX-2 IC50): 286 µM
IC50 (Human recombinant COX-2; [10]): 286 µM
IC50 keratinocyte (HaCaT) cells [7]: 30.76 µg/mL (≈ 114 µM)
full maximal inhibitory concentration (IC100) keratinocyte (HaCaT) cells [7]: > 250 µg/mL
NO Radical; IC50 [1]: >1000 µg/mL
FRAP (mM FeSO4/g Extract) [8]: 1.04 ± 0.01 mM FeSO4/g Extract
DPPH Radical; IC50 [2]: >1000 µg/mL
Ki [3]: 2.28 µM
type of inhibition against 5-LOX [3]: mixed-type inhibition; also recorded: mixed-type inhibitor
